Reference: ChEMBL document CHEMBL5303573, “Mapping human microbiome drug metabolism by gut bacteria and their genes” (Nature, 2019)

What was measured:
[1] = The drug is tested on Bifidobacterium breve strain: DSM20213 for biotransformation. The drug concentrations were measured before and after a 12-h incubation by liquid-chromatography-coupled mass spectrometry (LC–MS); details: 2 µM
[2] = The drug is tested on Collinsella aerofaciens strain: ATCC25986 for biotransformation. The drug concentrations were measured before and after a 12-h incubation by liquid-chromatography-coupled mass spectrometry (LC–MS); details: 2 µM
[3] = The drug is tested on Bacteroides coprophilus strain: DSM18228 for biotransformation. The drug concentrations were measured before and after a 12-h incubation by liquid-chromatography-coupled mass spectrometry (LC–MS); details: 2 µM
[4] = The drug is tested on Bacteroides vulgatus strain: ATCC8482 for biotransformation. The drug concentrations were measured before and after a 12-h incubation by liquid-chromatography-coupled mass spectrometry (LC–MS); details: phocaeicola vulgatus, 2 µM
[5] = The drug is tested on Bacteroides xylanisolvens strain: DSM18836 for biotransformation. The drug concentrations were measured before and after a 12-h incubation by liquid-chromatography-coupled mass spectrometry (LC–MS); details: 2 µM
[6] = The drug is tested on Blautia hansenii strain: DSM20583 for biotransformation. The drug concentrations were measured before and after a 12-h incubation by liquid-chromatography-coupled mass spectrometry (LC–MS); details: 2 µM
[7] = The drug is tested on Clostridium sporogenes strain: ATCC15579 for biotransformation. The drug concentrations were measured before and after a 12-h incubation by liquid-chromatography-coupled mass spectrometry (LC–MS); details: 2 µM
[8] = The drug is tested on Clostridium symbiosum strain: ATCC14940 for biotransformation. The drug concentrations were measured before and after a 12-h incubation by liquid-chromatography-coupled mass spectrometry (LC–MS); details: 2 µM
[9] = The drug is tested on Eubacterium rectale strain: ATCC33656 for biotransformation. The drug concentrations were measured before and after a 12-h incubation by liquid-chromatography-coupled mass spectrometry (LC–MS); details: agathobacter rectalis, 2 µM
[10] = bacteroides fragilis, 12 h, 2 µM
Description: The drug is tested on Bacteroides fragilis strain: 3397 (T10) for biotransformation. The drug concentrations were measured before and after a 12-h incubation by liquid-chromatography-coupled mass spectrometry (LC–MS)

[11] = bacteroides fragilis, 12 h, 2 µM; remark: listed apart in the source
Description: The drug is tested on Bacteroides fragilis strain: DS-208 for biotransformation. The drug concentrations were measured before and after a 12-h incubation by liquid-chromatography-coupled mass spectrometry (LC–MS)

[12] = bacteroides thetaiotaomicron, 12 h, 2 µM
Description: The drug is tested on Bacteroides thetaiotaomicron strain: VPI-5482 for biotransformation. The drug concentrations were measured before and after a 12-h incubation by liquid-chromatography-coupled mass spectrometry (LC–MS)

[13] = victivallis vadensis, 12 h, 2 µM
Description: The drug is tested on Victivallis vadensis strain: ATCC BAA-548 for biotransformation. The drug concentrations were measured before and after a 12-h incubation by liquid-chromatography-coupled mass spectrometry (LC–MS)

[14] = The drug is tested on Bacteroides fragilis strain: HMW610 for biotransformation. The drug concentrations were measured before and after a 12-h incubation by liquid-chromatography-coupled mass spectrometry (LC–MS); details: 2 µM
[15] = The drug is tested on Bacteroides fragilis strain: ATCC43859 for biotransformation. The drug concentrations were measured before and after a 12-h incubation by liquid-chromatography-coupled mass spectrometry (LC–MS); details: 2 µM
[16] = The drug is tested on Clostridium ramosum strain: DSM1402 for biotransformation. The drug concentrations were measured before and after a 12-h incubation by liquid-chromatography-coupled mass spectrometry (LC–MS); details: thomasclavelia ramosa, 2 µM
[17] = The drug is tested on Eubacterium hallii strain: DSM3353 for biotransformation. The drug concentrations were measured before and after a 12-h incubation by liquid-chromatography-coupled mass spectrometry (LC–MS); details: anaerobutyricum hallii, 2 µM
[18] = The drug is tested on Edwardsiella tarda strain: ATCC23685 for biotransformation. The drug concentrations were measured before and after a 12-h incubation by liquid-chromatography-coupled mass spectrometry (LC–MS); details: 2 µM
[19] = bacteroides thetaiotaomicron, 12 h, 2 µM; remark: listed apart in the source
Description: The drug is tested on Bacteroides thetaiotaomicron strain: 7330 for biotransformation. The drug concentrations were measured before and after a 12-h incubation by liquid-chromatography-coupled mass spectrometry (LC–MS)

[20] = The drug is tested on Bacteroides cellulosilyticus strain: DSM14838 for biotransformation. The drug concentrations were measured before and after a 12-h incubation by liquid-chromatography-coupled mass spectrometry (LC–MS); details: 2 µM

| SMILES | Bacterial Biotransformation [1] | Bacterial Biotransformation [2] | Bacterial Biotransformation [3] | Bacterial Biotransformation [4] | Bacterial Biotransformation [5] | Bacterial Biotransformation [6] | Bacterial Biotransformation [7] | Bacterial Biotransformation [8] | Bacterial Biotransformation [9] | Bacterial Biotransformation [10] | Bacterial Biotransformation [11] | Bacterial Biotransformation [12] | Bacterial Biotransformation [13] | Bacterial Biotransformation [14] | Bacterial Biotransformation [15] | Bacterial Biotransformation [16] | Bacterial Biotransformation [17] | Bacterial Biotransformation [18] | Bacterial Biotransformation [19] | Bacterial Biotransformation [20] |
| --- | --- | --- | --- | --- | --- | --- | --- | --- | --- | --- | --- | --- | --- | --- | --- | --- | --- | --- | --- | --- |
| O=P1(N(CCCl)CCCl)NCCCO1 (stereo not drawn) [CYCLOPHOSPHAMIDE ANHYDROUS] | Compound NOT metabolized | Compound NOT metabolized | Compound NOT metabolized | Compound NOT metabolized | Compound NOT metabolized | Compound metabolized | Compound NOT metabolized | Compound NOT metabolized | Compound NOT metabolized | Compound NOT metabolized | Compound NOT metabolized | Compound NOT metabolized | Compound NOT metabolized | – | – | – | – | – | – | – |
| CN(C)C(=O)Oc1cc(OC(=O)N(C)C)cc(C(O)CNC(C)(C)C)c1 (stereo not drawn) [BAMBUTEROL] | Compound NOT metabolized | Compound NOT metabolized | Compound NOT metabolized | Compound NOT metabolized | Compound NOT metabolized | Compound NOT metabolized | Compound NOT metabolized | Compound NOT metabolized | Compound NOT metabolized | Compound NOT metabolized | Compound NOT metabolized | Compound NOT metabolized | Compound NOT metabolized | Compound NOT metabolized | Compound NOT metabolized | Compound NOT metabolized | Compound NOT metabolized | Compound NOT metabolized | Compound NOT metabolized | – |
| CCCc1nc(C(C)(C)O)c(C(=O)OCc2oc(=O)oc2C)n1Cc1ccc(-c2ccccc2-c2nnn[nH]2)cc1 [OLMESARTAN MEDOXOMIL] | Compound metabolized | Compound metabolized | Compound metabolized | Compound metabolized | Compound metabolized | – | – | Compound metabolized | Compound metabolized | Compound metabolized | Compound metabolized | – | Compound metabolized | Compound metabolized | Compound metabolized | – | Compound metabolized | Compound metabolized | Compound metabolized | Compound metabolized |
| CN1CCC(=C2c3ccccc3CCc3cccnc32)CC1.O=C(O)/C=C\C(=O)O.O=C(O)/C=C\C(=O)O [AZATADINE MALEATE] | Compound NOT metabolized | Compound NOT metabolized | Compound NOT metabolized | – | – | – | Compound NOT metabolized | Compound NOT metabolized | Compound NOT metabolized | Compound NOT metabolized | Compound NOT metabolized | Compound NOT metabolized | Compound NOT metabolized | Compound NOT metabolized | – | Compound NOT metabolized | Compound NOT metabolized | Compound NOT metabolized | Compound NOT metabolized | Compound NOT metabolized |
| CSc1ccc2c(c1)C(N1CCN(C)CC1)Cc1ccccc1S2.O=C(O)/C=C\C(=O)O (stereo not drawn) | Compound metabolized | Compound NOT metabolized | Compound NOT metabolized | Compound NOT metabolized | Compound NOT metabolized | Compound NOT metabolized | Compound metabolized | Compound NOT metabolized | Compound NOT metabolized | Compound NOT metabolized | Compound NOT metabolized | Compound NOT metabolized | – | Compound NOT metabolized | Compound NOT metabolized | Compound NOT metabolized | Compound NOT metabolized | Compound NOT metabolized | Compound NOT metabolized | Compound NOT metabolized |
| CCOC(=O)[C@H](CCc1ccccc1)N[C@H]1CCc2ccccc2N(CC(=O)O)C1=O [BENAZEPRIL] | Compound NOT metabolized | Compound metabolized | Compound metabolized | Compound metabolized | Compound metabolized | Compound NOT metabolized | Compound metabolized | Compound NOT metabolized | Compound NOT metabolized | Compound metabolized | Compound metabolized | Compound metabolized | – | Compound metabolized | Compound metabolized | Compound NOT metabolized | Compound NOT metabolized | Compound NOT metabolized | Compound metabolized | Compound NOT metabolized |
| CN(C)CCC=C1c2ccccc2C=Cc2ccccc21 [CYCLOBENZAPRINE] | Compound NOT metabolized | Compound NOT metabolized | Compound NOT metabolized | Compound NOT metabolized | Compound NOT metabolized | Compound metabolized | – | Compound NOT metabolized | Compound NOT metabolized | Compound NOT metabolized | Compound NOT metabolized | Compound NOT metabolized | Compound NOT metabolized | Compound NOT metabolized | – | Compound NOT metabolized | Compound NOT metabolized | Compound NOT metabolized | – | – |
